The target of one experiment is T1, human MASP-1 (Homo sapiens, UniProt P48740).
T1 construct: catalytic enzyme fragments containing the three C-terminal domains: CCP1-CCP2-SP
T1 sequence (P48740 449-699 limits assumed): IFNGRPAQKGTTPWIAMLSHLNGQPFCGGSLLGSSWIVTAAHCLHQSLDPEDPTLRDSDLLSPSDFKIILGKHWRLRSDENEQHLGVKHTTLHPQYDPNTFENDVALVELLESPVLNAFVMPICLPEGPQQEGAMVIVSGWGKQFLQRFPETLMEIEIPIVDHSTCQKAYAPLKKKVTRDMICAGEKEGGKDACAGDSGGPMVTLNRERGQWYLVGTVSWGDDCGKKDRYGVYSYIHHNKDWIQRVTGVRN
T1 sequence (P48740 298-448 partner limits assumed): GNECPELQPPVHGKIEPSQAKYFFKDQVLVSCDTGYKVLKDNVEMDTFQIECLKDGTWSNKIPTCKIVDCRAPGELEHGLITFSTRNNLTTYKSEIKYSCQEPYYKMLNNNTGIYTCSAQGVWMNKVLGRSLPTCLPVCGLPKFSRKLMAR
Kind of experiment: KI determination on human MASP-1 catalytic fragment. The following applies: for KI on human MASP-1: catalytic fragment, Z-L-Lys-SBzl. It is filed as biochemical. Also noted: key to KI on human MASP-1: N.E.: not effective. The method, then:
(§1) The inhibition equilibrium constant (KI) of all four inhibitor variants produced was measured on human MASP-2 and rat MASP-2. Additionally, KI values were measured also on human MASP-1 and human MASP-3 to assess the specificity of the inhibitors amongst the MASP enzymes. KI values of the inhibitors on bovine trypsin, a pancreatic model enzyme was also measured.
(§2) For determining the KI of the inhibitors on MASP enzymes we used catalytic enzyme fragments containing the three C-terminal domains: CCP1-CCP2-SP. The synthetic substrate used in the measurements was Z-L-Lys-SBzl hydrochloride (Sigma, C3647), from which a 10 mM stock solution was prepared. The reactions were performed in a volume of 0.2 ml at room temperature in a buffer consisting of 20 mM HEPES; 145 mM NaCl; 5 mM CaCl2; 0.05% Triton-X100. The substrate cleaved by the enzyme entered into a reaction with the 5,5′-Dithiobis(2-nitrobenzoic acid) (DTNB, Ellman's reagent, Sigma—D8130) auxiliary substrate present in the solution in 2-fold excess to Z-L-Lys-SBzl. The release of the chromophore group created in this way was monitored via the change of absorbance at 410 nm using a BioTek Synergy H4 multimode microplate reader.
(§3) A dilution sequence was prepared from the individual inhibitors, the enzyme was added to it, and it was incubated for 2 hours at room temperature. The samples were transferred on a 96-well microtiter plate (Nunc 269620). The reactions were started by adding the mixture of the substrate and the auxiliary substrate to the samples. The concentration of the substrate and the length of the measuring period were chosen so that under the given conditions the enzyme should consume less than 10% of the substrate. In this case we used 250 μM Z-L-Lys-SBzl and 500 μM DTNB in the reactions. In the course of measuring, a method developed for the characterisation of tight-binding inhibitors was used (Empie, 1982). The concentration of the product was measured as a function of reaction time. The slope of the straight line determined for the initial phase of the reaction was normalised with the slope obtained for the uninhibited enzyme reaction, and this value was multiplied with the total enzyme concentration. As a result of this we obtained the free enzyme concentration, which was plotted as a function of the total inhibitor concentration and the Ki value was determined according to the following equation:
(§4) E=y=E0−(E0+x+Ki−(((E0+x+Ki)^2)−4*E0*x)^(½))/2,
(§5) where E is the free (uninhibited) enzyme concentration, and E0 is the total enzyme concentration. The stock concentration of the inhibitors was determined by titration with bovine trypsin of known concentration. The results were calculated as the average of parallel measurements.

In the next experiment the target is T2, human MASP-3 (Homo sapiens, UniProt P48740).
T2 construct: catalytic enzyme fragments containing the three C-terminal domains: CCP1-CCP2-SP
T2 sequence (P48740 450-728 isoform P48740-2 limits assumed): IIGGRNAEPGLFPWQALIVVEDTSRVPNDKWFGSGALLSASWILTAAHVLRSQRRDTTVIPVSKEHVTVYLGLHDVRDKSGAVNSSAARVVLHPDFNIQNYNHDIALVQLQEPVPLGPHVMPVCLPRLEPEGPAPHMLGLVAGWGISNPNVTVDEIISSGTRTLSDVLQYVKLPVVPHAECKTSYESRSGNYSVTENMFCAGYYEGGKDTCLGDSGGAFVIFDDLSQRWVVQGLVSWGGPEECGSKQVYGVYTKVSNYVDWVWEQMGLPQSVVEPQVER
Kind of experiment: KI determination on human MASP-3 catalytic fragment. The experiment is classed as biochemical. The following applies: for Ki: catalytic fragment, Z-L-Lys-SBzl. As to the method: as §1, §2, §3, §4, §5

A further experiment relates to intrinsic pathway. Kind of experiment: Activated partial thromboplastin time (APTT) in human plasma. As to the method:
(§6) Blood coagulation measurements using blood plasma taken from healthy human individuals were also performed. From the blood obtained through venipuncture and treated with sodium citrate (3.8% wt/vol) the plasma was isolated by centrifugation (2,000 g, 15 minutes, Jouan CR412 centrifuge).
(§7) The effect of the protein variants of the present invention on the blood coagulation process was tested in three standard assays, the thrombin time, testing any direct effects on thrombin; prothrombin time, testing any effects on the extrinsic pathway; and the activated partial thromboplastin time, testing any effects on the intrinsic pathway. Blood was collected from a healthy individual by vein puncture after informed consent. The blood was treated with sodium-citrate (3.8% w/v) and centrifuged. All three assays were performed on the automated instrument Sysmex CA-1500 (Sysmex) with Innovin reagent (Dale Behring, Marburg, Germany).
(§8) The inhibitors were applied in a fivefold serial dilution with the highest final concentration being 36 μM. This value is 3-4 orders of magnitudes higher than the KI values of the three protein variants of the present invention on human MASP-2. Even at the highest concentration the protein variants of the present invention have only little effect in the APTT test and no effect in the PT and TT tests.

The subject of another experiment is extrinsic pathway. Kind of experiment: Prothrombin time (PT) in human plasma. The method, then:
as §6, §7, §8

For the next experiment, the system named is thrombin. Kind of experiment: Thrombin time (TT) in human plasma. The method, then: as §6, §7, §8
A further experiment has as its target T3, rat MASP-2 (Rattus norvegicus, UniProt Q9JJS8).
T3 construct: made in house
Kind of experiment: KI determination on rat MASP-2 catalytic fragment. The experiment is classed as biochemical. To be noted: KI ratio. As to the method:
as §1
For determining the KI of the inhibitors on MASP enzymes we used catalytic enzyme fragments containing the three C-terminal domains: CCP1-CCP2-SP. The synthetic substrate used in the measurements was Z-L-Lys-SBzl hydrochloride (Sigma, C3647), from which a 10 mM stock solution was prepared. […] The release of the chromophore group created in this way was monitored via the change of absorbance at 410 nm using a BioTek Synergy H4 multimode microplate reader.
A dilution sequence was prepared from the individual inhibitors, the enzyme was added to it, and it was incubated for 2 hours at room temperature. […] The concentration of the product was measured as a function of reaction time. The slope of the straight line determined for the initial phase of the reaction was normalised with the slope obtained for the uninhibited enzyme reaction, and this value was multiplied with the total enzyme concentration. […]

In a further experiment the target is porcine trypsin (Sus scrofa, UniProt P00761). To be noted: Petersen 1996; read-out: KI towards porcine trypsin; cited from earlier work.
Chain of porcine trypsin (P00761 9-231): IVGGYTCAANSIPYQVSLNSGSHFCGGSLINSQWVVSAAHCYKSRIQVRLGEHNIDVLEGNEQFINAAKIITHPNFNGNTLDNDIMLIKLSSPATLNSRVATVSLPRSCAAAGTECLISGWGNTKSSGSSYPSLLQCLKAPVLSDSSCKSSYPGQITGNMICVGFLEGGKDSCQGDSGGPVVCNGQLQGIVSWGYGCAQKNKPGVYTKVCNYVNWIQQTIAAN
A further experiment concerns the target MASP-2 (Homo sapiens, UniProt O00187). More on the design: host or cells: diluted serum. The following applies: Wouters 2011; Keizer 2015; read-out: IC50 of MASP-2 inhibition in solid phase ELISA assay with diluted serum; cited from earlier work.

Where no end group is shown, it is not given here.

This is an account of results in patent US20200131249A1, “NOVEL PROTEINS AND USE THEREOF” (EVOLVERITAS KFT., priority 2017, published 2020).

T3 sequence (Q9JJS8 with tags, fused parts or gaps L506P/I507H/R622A): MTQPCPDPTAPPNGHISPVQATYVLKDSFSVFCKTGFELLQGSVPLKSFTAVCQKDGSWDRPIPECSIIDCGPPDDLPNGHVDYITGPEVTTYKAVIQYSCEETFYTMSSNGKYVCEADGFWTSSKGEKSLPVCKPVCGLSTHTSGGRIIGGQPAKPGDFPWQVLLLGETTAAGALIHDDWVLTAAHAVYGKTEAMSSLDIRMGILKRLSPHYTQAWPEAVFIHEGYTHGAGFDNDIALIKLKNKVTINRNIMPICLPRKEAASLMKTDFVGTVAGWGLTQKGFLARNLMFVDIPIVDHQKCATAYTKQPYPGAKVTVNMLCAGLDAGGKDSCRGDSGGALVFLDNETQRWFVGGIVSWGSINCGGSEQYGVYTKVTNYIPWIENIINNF
Chain of MASP-2 (O00187 16-686, species assumed): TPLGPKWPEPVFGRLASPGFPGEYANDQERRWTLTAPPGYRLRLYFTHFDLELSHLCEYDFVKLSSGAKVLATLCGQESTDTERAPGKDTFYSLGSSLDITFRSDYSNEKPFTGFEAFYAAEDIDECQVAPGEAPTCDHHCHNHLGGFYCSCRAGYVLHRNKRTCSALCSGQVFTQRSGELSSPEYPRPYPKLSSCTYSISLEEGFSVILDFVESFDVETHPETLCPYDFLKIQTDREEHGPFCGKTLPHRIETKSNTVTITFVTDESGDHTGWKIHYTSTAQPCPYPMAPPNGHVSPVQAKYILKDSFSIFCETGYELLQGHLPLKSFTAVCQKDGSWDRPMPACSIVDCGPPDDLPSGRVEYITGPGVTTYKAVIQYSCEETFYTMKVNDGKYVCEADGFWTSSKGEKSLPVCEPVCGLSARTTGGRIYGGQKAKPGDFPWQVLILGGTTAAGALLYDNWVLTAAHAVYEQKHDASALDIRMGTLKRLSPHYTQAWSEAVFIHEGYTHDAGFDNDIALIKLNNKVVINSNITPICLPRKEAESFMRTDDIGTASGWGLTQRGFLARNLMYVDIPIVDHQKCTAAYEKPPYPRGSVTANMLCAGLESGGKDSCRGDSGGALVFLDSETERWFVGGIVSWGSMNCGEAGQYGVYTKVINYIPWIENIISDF

Consider “SEQ ID NO: 11: TFPI-D2 variant protein with inhibitor loop FCRAVKR (SEQ ID NO: 1) (KPDFCFLEEDPGFCRAVKRRYFYNNQTKQCERFKYGGCLGNMNNFETLEECKNICEDG; ends and bridges not checked; cysteine pairing not given here)”, for which the “KI on human MASP-1” value with human MASP-1 is on record as “N.E”. Besides, the Ki in the experiment with human MASP-3 was greater than 30 µM. Also, the APTT in the experiment with intrinsic pathway (inhibitor 0.1 μM) amounted to 36.3 s; in the experiment with intrinsic pathway (inhibitor 0.3 μM) it was 36.5 s; in the experiment with intrinsic pathway (inhibitor 1.4 μM), 37.0 s; with intrinsic pathway (inhibitor 7.2 μM) it was 39.3 s; with intrinsic pathway (inhibitor 36.0 μM) it was 46.0 s. In addition, the PT with extrinsic pathway (inhibitor 0.1 μM) came out at 10.7 s; in the experiment on extrinsic pathway (inhibitor 0.3 μM) it was 10.8 s; in the experiment on extrinsic pathway (inhibitor 1.4 μM), 11.0 s; with extrinsic pathway (inhibitor 7.2 μM) it was 11.0 s; in the experiment with extrinsic pathway (inhibitor 36.0 μM), 11.4 s. Further, the TT was found to be 16.5 s with thrombin (inhibitor 0.1 μM); 16.6 s in the experiment with thrombin (inhibitor 0.3 μM); 16.7 s in the experiment on thrombin (inhibitor 1.4 μM); 16.4 s with thrombin (inhibitor 7.2 μM); 16.0 s in the experiment on thrombin (inhibitor 36.0 μM).
For the substance “SEQ ID NO: 17: TFPI-D2 variant protein with inhibitor loop VCRAVKR (SEQ ID NO: 7) (KPDFCFLEEDPGVCRAVKRRYFYNNQTKQCERFKYGGCLGNMNNFETLEECKNICEDG; ends and bridges not checked; cysteine pairing not given here)”, the “fold more potent than SGMI-2 on rat MASP-2” value with rat MASP-2 is listed as “about 3 fold”. In addition, the “KI on human MASP-1” value with human MASP-1 is recorded as “N.E”. Moreover, in the experiment with human MASP-3, the Ki was greater than 30 µM. Besides, the APTT in the experiment on intrinsic pathway (inhibitor 0.1 μM) is reported as 36.8 s; with intrinsic pathway (inhibitor 0.3 μM) it was 37.2 s; in the experiment on intrinsic pathway (inhibitor 1.4 μM), 38.1 s; in the experiment with intrinsic pathway (inhibitor 7.2 μM) it was 40.6 s; in the experiment on intrinsic pathway (inhibitor 36.0 μM) it was 47.4 s. For the same substance, the PT is 10.8 s in the experiment with extrinsic pathway (inhibitor 0.1 μM); 10.8 s with extrinsic pathway (inhibitor 0.3 μM); 10.8 s with extrinsic pathway (inhibitor 1.4 μM); 10.9 s in the experiment on extrinsic pathway (inhibitor 7.2 μM); 11.4 s in the experiment with extrinsic pathway (inhibitor 36.0 μM). Also, the TT in the experiment with thrombin (inhibitor 0.1 μM) is 16.6 s; in the experiment with thrombin (inhibitor 0.3 μM), 16.3 s; in the experiment with thrombin (inhibitor 1.4 μM), 16.4 s; in the experiment on thrombin (inhibitor 7.2 μM) it was 16.4 s; in the experiment on thrombin (inhibitor 36.0 μM), 16.0 s.
Take TFPI-D2 [reference compound]: the “KI on human MASP-1” value in the experiment with human MASP-1 is listed as “N.E”. Also, the “inhibition of MASP-1” value in the experiment with human MASP-1 (result in words) was “No considerable inhibition”. The Ki in the experiment with human MASP-3 was greater than 30 µM; in the experiment with porcine trypsin it was 0.0001 µM. In addition, in the experiment with human MASP-3 (result in words), the “inhibition of MASP-3” value is “No considerable inhibition”. The IC50 with MASP-2 is 10 µM.

What is called Ki is a dissociation constant, usually derived from enzyme kinetics or from competition with a known ligand. As a reminder, the IC50 is the concentration that inhibits the measured activity by half.
